Test results taken from patent publication US6670355B2, “Method of treating cardiovascular disease” (Wyeth, priority 2000, dated 2003).
“And” between values parts separate entries of the source, which are not always exact repeats. Equal values may be shown once.

Test system: ApoE knockout (EKO) mice
Assay: standard pharmacological test procedure for atherosclerosis in ApoE knockout (EKO) mice: plasma lipids and aortic arch lesions
Assay type: in vivo
Details: for Aortic Atherosclerosis (% lesion involvement as assessed by lpipd staining): aortic arch, Oil Red O; for Aortic Atherosclerosis (% lesion involvement as assessed by lpipd staining) / HDL-C / LDL-C / Total Cholesterol / Triglycerides / VLDL-C: Western Diet, mean ± S.E.; for HDL-C / LDL-C / Total Cholesterol / Triglycerides / VLDL-C: plasma
Source text: The ability of the rapamycins of this invention to treat or inhibit cardiovascular disease or peripheral vascular disease was confirmed in a standard pharmacological test procedure using ApoE knockout (EKO) mice, which are a well accepted animal model of human atherosclerosis. In this test procedure, rapamycin was used a representative example of a rapamycin of this invention. The procedure used, and results obtained are briefly summarized below.
Male EKO mice, 4-6 weeks of age, were housed in shoe-box cages and were allowed ad lib food and water. The animals were randomized by weight into 5 groups (N=12-15 mice per group) and were fed Purina Rodent Chow for the first week of the study. Also during this period as well as the remaining 12 weeks of the study, the animals were dosed every 2 days with 0, 1, 2, 4 or 8 mg/kg rapamycin s.c. using 2% Tween-80, 1% carboxymethyl cellulose as the vehicle and Control. The animal diet was switched to a casein-based Western Diet for week 2 to week 13 of the study. At the end of the study period, the animals were euthanized, plasma samples obtained, and the hearts perfused first with saline, then with 10% formalin. Total cholesterol and triglycerides were determined using enzymatic methods with commercially-available kits from Boehringer Mannheim and Wako Biochemicals, respectively, and the Boehringer Mannheim Hitachii 911 Analyzer (Boehringer Mannheim Diagnostic Laboratory Systems, Indianapolis, Ind.). Separation and quantification of plasma lipoproteins were performed using FPLC size fractionation. Briefly, […] of serum was filtered and injected into two Superose 6 columns (Amersham Pharmacia Biotech, UK, Ltd) connected in series and eluted at a constant flow rate with 1 mM sodium EDTA and 0.15 M NaCl. Areas of each curve representing VLDL, LDL and HDL were integrated using Millennium software (Waters Technologies Corporation), and each lipoprotein fraction was quantified by multiplying the Total Cholesterol value by the relative percent area of each respective peak. The aortas were carefully isolated and remained in the formalin fixative for 48-72 hours before handling. Atherosclerotic lesions were identified by Oil Red O staining, a well accepted procedure for identifying accumulation of neutral lipids such as cholesterols and triglycerides. The vessels were destained, and then imaged using a Nikon SMU800 microscope fitted with a Sony 3CCD video camera system in concert with IMAQ Configuration Utility (National Instrument) as the image capturing software. The lesions were quantified along the aortic arch using a custom threshold utility software package designed by Robert Coll (Coleman Technologies). Automated lesion assessment was performed on the vessels using the threshold function of the program, specifically on the region contained within the aortic arch from the proximal edge of the Right Common Carotid artery to the distal edge of the Left Subclavian artery. Aortic atherosclerosis data were expressed as percent lesion (lipid) involvement strictly within this defined luminal area. Statistical significance between the Control and treated groups was determined using the Dunnett's Test at 1% significance level (p<0.01).

With CO[C@H]1C[C@@H]2CC[C@@H](C)[C@@](O)(O2)C(=O)C(=O)N2CCCC[C@H]2C(=O)O[C@H]([C@H](C)C[C@@H]2CC[C@@H](O)[C@H](OC)C2)CC(=O)[C@H](C)/C=C(\C)[C@@H](O)[C@@H](OC)C(=O)[C@H](C)C[C@H](C)/C=C/C=C/C=C/1C [rapamycin] the “area of aorta containing fat” value (1, 2, 4, or 8-mg/kg qod for 12 weeks) was 12-16%, the “Aortic Atherosclerosis (% lesion involvement as assessed by lpipd staining)” value (1 mg/kg s.c. every 2 days, 1 mg/kg) was 21.6% and 21.6 ± 3.1 % and the “Aortic Atherosclerosis (% lesion involvement as assessed by lpipd staining)” value (2 mg/kg s.c. every 2 days, 2 mg/kg) was 14.9 ± 3.1 %. For the same compound, the “Aortic Atherosclerosis (% lesion involvement as assessed by lpipd staining)” value (4 mg/kg s.c. every 2 days, 4 mg/kg) was 16% and 16.4 ± 2.8 %, the “Aortic Atherosclerosis (% lesion involvement as assessed by lpipd staining)” value (8 mg/kg s.c. every 2 days, 8 mg/kg) was 12% and 12.03 ± 2.3 % and the “effect on VLDL-cholesterol” value (compared with control EKO mice) was “not significantly affecting”. The “effect on circulating plasma HDL-cholesterol” value (compared with control EKO mice) was “significantly (p<0.01) increased”, the “effect on circulating plasma LDL-cholesterol” value (compared with control EKO mice) was “significantly (p<0.01) increased” and the “effect on total cholesterol” value (compared with control EKO mice) was “not significantly affecting”. The effect on triglycerides (compared with control EKO mice) was “not significantly affecting”, the HDL-C (1 mg/kg s.c. every 2 days) was 23 ± 6 mg/dL and the LDL-C (1 mg/kg s.c. every 2 days) was 508 ± 18 mg/dL. For the same compound, the “Total Cholesterol” value (1 mg/kg s.c. every 2 days) was 1434 ± 35 mg/dL, the Triglycerides (1 mg/kg s.c. every 2 days) was 132 ± 16 mg/dL and the VLDL-C (1 mg/kg s.c. every 2 days) was 903 ± 34 mg/dL. For the same compound, the HDL-C (2 mg/kg s.c. every 2 days) was 31 ± 5 mg/dL, the LDL-C (2 mg/kg s.c. every 2 days) was 517 ± 18 mg/dL and the “Total Cholesterol” value (2 mg/kg s.c. every 2 days) was 1311 ± 80 mg/dL. The Triglycerides (2 mg/kg s.c. every 2 days) was 143 ± 20 mg/dL, the VLDL-C (2 mg/kg s.c. every 2 days) was 763 ± 64 mg/dL and the HDL-C (4 mg/kg s.c. every 2 days) was 38 ± 5 mg/dL. For the same compound, the LDL-C (4 mg/kg s.c. every 2 days) was 494 ± 10 mg/dL, the “Total Cholesterol” value (4 mg/kg s.c. every 2 days) was 1281 ± 58 mg/dL and the Triglycerides (4 mg/kg s.c. every 2 days) was 136 ± 12 mg/dL. It also gave a VLDL-C (4 mg/kg s.c. every 2 days) of 749 ± 58 mg/dL, an HDL-C (8 mg/kg s.c. every 2 days) of 49 ± 3 mg/dL and an LDL-C (8 mg/kg s.c. every 2 days) of 475 ± 21 mg/dL. For the same compound, the “Total Cholesterol” value (8 mg/kg s.c. every 2 days) was 1167 ± 75 mg/dL, the Triglycerides (8 mg/kg s.c. every 2 days) was 134 ± 9 mg/dL and the VLDL-C (8 mg/kg s.c. every 2 days) was 644 ± 58 mg/dL. The circulating total cholesterol (rapamycin treated animals, 1, 2, 4, or 8-mg/kg qod for 12 weeks) was 1300 to 1500 mg/dL and the “reduction in aortic atherosclerosis” value (rapamycin treated vs Control EKO mice) was “three-fold reduction”.
